Source: patent US20250288704A1, “CXCR4-LIGANDS FOR DIAGNOSTIC AND THERAPEUTIC USE AND PRECURSORS THEREOF” (priority 2021, published 2025)
Like-named read-outs stand apart in the source and are kept apart here. Positions of bridges follow the written chain, without caps; N, C: chain ends. Non-standard residues stand in square brackets, D forms with d. Residues, ends and D or L forms follow the SMILES beside them. Groups on a side chain read outwards from the residue. Chains are numbered I, II in the order given. *: point of attachment. X2 = OC[C@H]1O[C@@H](O[C@H]2[C@H](O)[C@@H](O)[C@H](*)O[C@@H]2CO)[C@H](O)[C@@H](O)[C@H]1O; X5 = CC(C)(C)[Si](F)(c1ccc(C[N+](C)(C)CC(=O)*)cc1)C(C)(C)C; DOTA = O=C(O)CN1CCN(CC(=O)O)CCN(CC(=O)*)CCN(CC(=O)O)CC1; dTyr(3-I) = N[C@H](Cc1ccc(O)c(I)c1)C(=O)O; 2Nal = N[C@@H](Cc1ccc2ccccc2c1)C(=O)O; dNMeOrn = CN[C@H](CCCN)C(=O)O; d(hCys) = N[C@H](CCS)C(=O)O; 4Amb = NCc1ccc(C(=O)O)cc1; 4Abz = Nc1ccc(C(=O)O)cc1; dDap = NC[C@@H](N)C(=O)O; Ahx = NCCCCCC(=O)O

How the values were obtained:
[1] = Biodistribution in Jurkat tumor-bearing CB-17 SCID mice; format: in vivo; details: female, CB-17 SCID, mouse, in vivo, iv, total radioactivity
Procedure: All animal experiments were conducted in accordance with general animal welfare regulations in Germany and the institutional guidelines for the care and use of animals. To establish tumor xenografts, Jurkat cells (2-3×10^7 cells) were suspended in a mixture of Gibco's RPMI 1640 medium and Matrigel (1/1; v/v) from BD Biosciences (Heidelberg, Germany), and inoculated subcutaneously onto the right shoulder of 6-10 weeks old CB17-SCID mice from either Charles River GmbH (Sulzfeld, Germany) or the in-house mouse breeding facility. Mice were used when tumors had grown to a diameter of 5-8 mm (4-10 weeks after inoculation).
Approximately 0.5-20 MBq (0.02-0.20 nmol) of the ^125I-, ^177Lu-, ^99mTc-, ^18F- or ^68Ga-labeled ligand were injected into the tail vein of Jurkat tumor-bearing CB-17 SCID mice and the animals sacrificed after the respective biodistribution time. Selected organs were removed, weighted and measured in a γ-counter.

[2] = Octanol/PBS partition coefficient (logD7.4); format: physicochemical; details: n-octanol/PBS pH 7.4, radiolabeled compound
Procedure: The tubes were vortexed at maximum speed for 3 min to ensure equilibrium before centrifugation at 15.000×g for 5 min on a Biofuge 15 from Heraeus Holding GmbH (Osterode, Germany). An aliquot of 100 μL of each fraction was measured in the γ-counter and the log D7.4 calculated as follows: […]

[3] = test system: CXCR4-expressing Chem_1 cells; test: Determination of internalization, dual tracer with 125I-Fc-131; format: cell-based; details: for Cell-bound [%] / Internalized [%]: of total cellular activity
Procedure: CXCR4-expressing Chem_1 cells were grown in DMEM-F12 medium supplemented with 10 vol % FBS, 1 vol % NEA, 1 vol % PenStrep and 1 vol % HEPES (1.00 M). Cells were maintained in a 5% CO2 atmosphere at 37° C.
For in vitro experiments, cells were harvested by removal of the medium and incubation of the cells with trypsine/EDTA (0.05%/0.02%; w/v) for 30 in at 37° C.
Each well (n=3 for every time point) was either treated with 25 μL DMEM-F12 (+5 wt % BSA) or 25 μL of an AMD3100 stock (1 mM in H2O) for blockage of the receptors.
The experiment was stopped by placing the well-plate on ice and removing the supernatant. The cells were washed with 250 μL cold HBSS and the both fractions for each well combined, comprising the amount of unbound radioligand.
The supernatant was removed, the cells washed with cold HBSS and the respective fractions combined to obtain the amount of surface-bound radioligand.
The cells were then incubated with 300 μL NaOH (1.00 M in H2O) for at least 30 at r.t. before the supernatant was removed. The well was washed with another 300 μL NaOH and the fractions combined that contain the amount of internalized radioligand.
The three different fractions were subjected to activity measurement in the γ-counter, measuring the activity of the radionuclide used for the labeling of the peptide under investigation first. […] Data was corrected for non-specific internalization and referred to the specific internalization of the standard ligand

SMILES	tissue uptake at 1 h ([1]; % iD/g Blood)	tissue uptake at 1 h ([1]; % iD/g Bone)	tissue uptake at 1 h ([1]; % iD/g Heart)	tissue uptake at 1 h ([1]; % iD/g Intestine)	tissue uptake at 1 h ([1]; % iD/g Kidney)	tissue uptake at 1 h ([1]; % iD/g Liver)	tissue uptake at 1 h ([1]; % iD/g Lung)	tissue uptake at 1 h ([1]; % iD/g Muscle)	tissue uptake at 1 h ([1]; % iD/g Pancreas)	tissue uptake at 1 h ([1]; % iD/g Spleen)	tissue uptake at 1 h ([1]; % iD/g Stomach)	tissue uptake at 1 h ([1]; % iD/g Tumor)	logD7.4 [2]	other results
C[C@@H](NC(=O)[C@@H](CCCNC(=N)N)NC(=O)[C@@H](CN)NC(=O)CN1CCN(CC(=O)O)CCN(CC(=O)O)CCN(CC(=O)O)CC1)C(=O)NCc1ccc(C(=O)NCCC[C@@H]2C(=O)N[C@@H](CCCNC(=N)N)C(=O)N[C@@H](Cc3ccc4ccccc4c3)C(=O)NCC(=O)N[C@H](Cc3ccc(O)cc3)C(=O)N2C)cc1 [CXCR4-DOTA-1 [Lu]] (cyclo([dY][dNMeOrn]([4Amb-dA-dR-dDap-DOTA])R[2Nal]G))	1.24 %ID/g	0.72 %ID/g	0.73 %ID/g	0.67 %ID/g	18.8 %ID/g	11 %ID/g	2.16 %ID/g	0.22 %ID/g	0.39 %ID/g	3.19 %ID/g	1.06 %ID/g	5.98 %ID/g		
C[C@@H](NC(=O)[C@@H](CCCNC(=N)N)NC(=O)[C@@H](CN)NC(=O)CN1CCN(CC(=O)O)CCN(CC(=O)O)CCN(CC(=O)O)CC1)C(=O)Nc1ccc(C(=O)NCCC[C@@H]2C(=O)N[C@@H](CCCNC(=N)N)C(=O)N[C@@H](Cc3ccc4ccccc4c3)C(=O)NCC(=O)N[C@H](Cc3ccc(O)cc3)C(=O)N2C)cc1 [CXCR4-DOTA-3 [Ga]] (cyclo([dY][dNMeOrn]([4Abz-dA-dR-dDap-DOTA])R[2Nal]G))													−3.35 ± 0.08 (5)	
C[C@@H](NC(=O)[C@@H](CCCNC(=N)N)NC(=O)[C@@H](CN)NC(=O)CN1CCN(CC(=O)O)CCN(CC(=O)O)CCN(CC(=O)O)CC1)C(=O)Nc1ccc(C(=O)NCCC[C@@H]2C(=O)N[C@@H](CCCNC(=N)N)C(=O)N[C@@H](Cc3ccc4ccccc4c3)C(=O)NCC(=O)N[C@H](Cc3ccc(O)c(I)c3)C(=O)N2C)cc1 [CXCR4-DOTA-4 [Ga]] (cyclo([dTyr(3-I)][dNMeOrn]([4Abz-dA-dR-dDap-DOTA])R[2Nal]G))													−2.65 ± 0.22 (6)	
C[C@@H](NC(=O)[C@@H](CCCNC(=N)N)NC(=O)[C@@H](CNC(=O)c1ccc([Si](F)(C(C)(C)C)C(C)(C)C)cc1)NC(=O)CC[C@H](C(=O)O)N1CCN(CC(=O)O)CCN(CC(=O)O)CCN(CC(=O)O)CC1)C(=O)Nc1ccc(C(=O)NCCC[C@@H]2C(=O)N[C@@H](CCCNC(=N)N)C(=O)N[C@@H](Cc3ccc4ccccc4c3)C(=O)NCC(=O)N[C@H](Cc3ccc(O)cc3)C(=O)N2C)cc1 [CXCR4-SiFA-1 [Ga]]													0.66 ± 0.01 (8)	
C[C@@H](NC(=O)[C@@H](CCCNC(=N)N)NC(=O)[C@@H](CN)NC(=O)CCCCCNC(=O)[C@@H](CNC(=O)CN1CCN(CC(=O)O)CCN(CC(=O)O)CCN(CC(=O)O)CC1)NC(=O)[C@@H](CCS[C@@H]1O[C@H](CO)[C@@H](O[C@@H]2O[C@H](CO)[C@H](O)[C@H](O)[C@H]2O)[C@H](O)[C@H]1O)NC(=O)C[N+](C)(C)Cc1ccc([Si](F)(C(C)(C)C)C(C)(C)C)cc1)C(=O)Nc1ccc(C(=O)NCCC[C@@H]2C(=O)N[C@@H](CCCNC(=N)N)C(=O)N[C@@H](Cc3ccc4ccccc4c3)C(=O)NCC(=O)N[C@H](Cc3ccc(O)cc3)C(=O)N2C)cc1 [CXCR4-SiFA-7 [Ga]] (I: X5-[d(hCys)](X2)[dDap](DOTA)[Ahx][dDap][dR][dA][4Abz] / II: cyclo([dY][dNMeOrn]R[2Nal]G); amide I:C-II:2)														tissue uptake at 1 h ([1]; Blood, 1 h p.i., Jurkat xenograft, CB-17 SCID female mice, read-out: % iD/g Blood): 0.85 %ID/g; tissue uptake at 1 h ([1]; Bone, 1 h p.i., Jurkat xenograft, CB-17 SCID female mice, read-out: % iD/g Bone): 2.89 %ID/g; tissue uptake at 1 h ([1]; Heart, 1 h p.i., Jurkat xenograft, CB-17 SCID female mice, read-out: % iD/g Heart): 1.13 %ID/g; tissue uptake at 1 h ([1]; Intestine, 1 h p.i., Jurkat xenograft, CB-17 SCID female mice, read-out: % iD/g Intestine): 0.81 %ID/g; tissue uptake at 1 h ([1]; Kidney, 1 h p.i., Jurkat xenograft, CB-17 SCID female mice, read-out: % iD/g Kidney): 11.1 %ID/g; tissue uptake at 1 h ([1]; Liver, 1 h p.i., Jurkat xenograft, CB-17 SCID female mice, read-out: % iD/g Liver): 53.5 %ID/g; tissue uptake at 1 h ([1]; Lung, 1 h p.i., Jurkat xenograft, CB-17 SCID female mice, read-out: % iD/g Lung): 2.13 %ID/g; tissue uptake at 1 h ([1]; Muscle, 1 h p.i., Jurkat xenograft, CB-17 SCID female mice, read-out: % iD/g Muscle): 0.26 %ID/g; tissue uptake at 1 h ([1]; Pancreas, 1 h p.i., Jurkat xenograft, CB-17 SCID female mice, read-out: % iD/g Pancreas): 0.51 %ID/g; tissue uptake at 1 h ([1]; Spleen, 1 h p.i., Jurkat xenograft, CB-17 SCID female mice, read-out: % iD/g Spleen): 6.96 %ID/g; tissue uptake at 1 h ([1]; Stomach, 1 h p.i., Jurkat xenograft, CB-17 SCID female mice, read-out: % iD/g Stomach): 0.63 %ID/g; tissue uptake at 1 h ([1]; Tumor, 1 h p.i., Jurkat xenograft, CB-17 SCID female mice, read-out: % iD/g Tumor): 0.67 %ID/g
C[C@@H](NC(=O)[C@@H](CCCNC(=N)N)NC(=O)[C@@H](CN)NC(=O)CCCCCNC(=O)[C@@H](CNC(=O)CN1CCN(CC(=O)O)CCN(CC(=O)O)CCN(CC(=O)O)CC1)NC(=O)CCCCC[N+]1=C(/C=C/C=C/C=C2/N(C)c3ccc(S(=O)(=O)O)cc3C2(C)C)C(C)(C)c2cc(S(=O)(=O)[O-])ccc21)C(=O)Nc1ccc(C(=O)NCCC[C@@H]2C(=O)N[C@@H](CCCNC(=N)N)C(=O)N[C@@H](Cc3ccc4ccccc4c3)C(=O)NCC(=O)N[C@H](Cc3ccc(O)cc3)C(=O)N2C)cc1 [[^natLu]CXCR4-OI-3, metal not drawn]	1.9 %ID/g	1.1 %ID/g	1.39 %ID/g	0.85 %ID/g	35 %ID/g	36.3 %ID/g	4.28 %ID/g	0.33 %ID/g	0.44 %ID/g	5.94 %ID/g	1.43 %ID/g	2.13 %ID/g		Internalized in relation to 125I-Fc-131 [%] ([3]; 30 min): 442 ± 12.1%; Cell-bound [%] ([3]; 30 min): 5.39 ± 0.41%; Internalized [%] ([3]; 30 min): 16.5 ± 0.19%; Internalized in relation to 125I-Fc-131 [%] ([3]; 90 min): 540 ± 42.7%; Cell-bound [%] ([3]; 90 min): 5.36 ± 0.47%; Internalized [%] ([3]; 90 min): 25.2 ± 1.08%
CN1C(=O)[C@@H](Cc2ccc(O)cc2)NC(=O)CNC(=O)[C@H](Cc2ccc3ccccc3c2)NC(=O)[C@H](CCCNC(=N)N)NC(=O)[C@H]1CCCNC(=O)c1ccc(CNC(=O)CN2CCN(CC(=O)O)CCN(CC(=O)O)CCN(CC(=O)O)CC2)cc1 [^68Ga-Pentixafor, cyclo(D-Tyr^1-D-[NMe](DOTA)-Orn^2Arg^3-Nal^4-Gly^5), metal not drawn, reference compound] (cyclo([dY][dNMeOrn]([4Amb-DOTA])R[2Nal]G))	1.29 %ID/g	0.48 %ID/g	0.56 %ID/g	0.43 %ID/g	2.75 %ID/g	1.59 %ID/g	1.57 %ID/g	0.19 %ID/g	0.14 %ID/g	1.48 %ID/g	0.51 %ID/g	7.58 %ID/g		
